Data set [1] concerns the target T1, recombinant human gelatinase A (Homo sapiens, UniProt P08253).
T1 construct: purchased Strangeways Laboratories, Cambridge, UK
T1 sequence (P08253 110-660): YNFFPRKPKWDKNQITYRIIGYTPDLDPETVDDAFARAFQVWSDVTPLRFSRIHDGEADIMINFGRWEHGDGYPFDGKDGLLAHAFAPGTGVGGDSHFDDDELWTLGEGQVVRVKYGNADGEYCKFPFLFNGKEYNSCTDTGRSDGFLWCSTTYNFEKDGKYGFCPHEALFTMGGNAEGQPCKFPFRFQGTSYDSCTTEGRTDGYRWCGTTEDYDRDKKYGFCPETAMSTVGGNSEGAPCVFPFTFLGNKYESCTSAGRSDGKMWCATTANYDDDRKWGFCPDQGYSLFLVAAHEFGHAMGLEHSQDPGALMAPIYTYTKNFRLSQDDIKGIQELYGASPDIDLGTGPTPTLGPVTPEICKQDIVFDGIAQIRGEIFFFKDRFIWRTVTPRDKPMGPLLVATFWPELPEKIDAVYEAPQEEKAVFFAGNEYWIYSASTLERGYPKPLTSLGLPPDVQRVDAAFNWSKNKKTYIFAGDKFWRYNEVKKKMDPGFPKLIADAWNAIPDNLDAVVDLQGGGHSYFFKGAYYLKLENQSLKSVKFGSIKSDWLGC
The data set can be described thus: In vitro effects on recombinant human gelatinase A. Type of data set: biochemical. The source says: Assays on human gelatinase A, an enzyme released in high concentration by any kind of tumor cells during the process of metastatization, and recognized also as a product of stimulated cells in many pathological processes, have been performed using the protein obtained by recombinant biotechnology (Strangeways Laboratories, Cambridge, UK). The enzymatic activity has been followed over time, measuring the amount of fluorescent substrate cleaved by the enzyme, in the presence or absence of synthetic compounds (Perkin Elmer L50 B fluorimeter).

In data set [2] the target is enzyme purified from the venom of Crotalus Adamanteus (hemorrhagin) (Crotalus adamanteus, UniProt P34179). The format is biochemical.
Data set [3] deals with T2, recombinant human gelatinase B (Homo sapiens, UniProt P14780).
T2 construct: purchased Stangeways Laboratories, Cambridge, UK (so in the source)
Description: In vitro effects on recombinant human gelatinase B. The format is biochemical. The method, then: Assays on human gelatinase B, another enzyme released by tumor cells, were performed using also, in this case, the protein obtained by recombinant biotechnology Stangeways Laboratories, Cambridge, UK). As usual, the enzymatic activity was followed over time, measuring the amount of fluorescent substrate cleaved by the enzyme, in the presence or absence of synthetic compounds (Perkin Elmer L50 B fluorimeter).

Data set [4] has as its target neutrophil collagenase (recombinant human) (Homo sapiens, UniProt P22894). Description: In vitro assays on recombinant human collagenase. Type of data set: biochemical. The method, then: Using the same enzymatic determination already described (fluorimetric detection of cleavage of a substrate peptide containing a fluorescent moiety), some of the compounds were tested on neutrophil collagenase, an enzyme described as participating in any kind of inflammatory reaction in mammalian bodies. In this case, the purified enxzyme was also obtained by recombinant means.

Data set [5] is described as follows: Resistance to proteolytic activity in stomach juices (rat stomach homogenate, HPLC). Conditions: 37° C.
Description: To check if the compounds of the present invention are resistant to proteolytic activity in stomach juices and, therefore, could be administered orally, the stomachs of fasting rats were homogenized in physiological solutions (1:1). 300 microliters of solutions of the compounds (1 mg/ml of saline) were incubated with 0.5 ml of stomach homogenates (37° C.).

The record followed here is US5846755A (priority 1995, dated 1998).

By % Inhibition is commonly meant the percentage by which the read-out fell short of the control. In general, IC50 refers to the point on the concentration scale where inhibition reaches its midpoint. As usually defined, the inhibition is the change of the read-out against control, counted positive when it falls.

Where two headings read alike, the source gives them in different places. Square brackets hold non-standard residues; d marks the D form. Peptide text beside a SMILES is read from it. * marks the point of attachment. Pip = O=C(O)[C@@H]1CCCCN1; Cbz = O=C(OCc1ccccc1)* A value given as a limit tells only on which side of the number the result lay.

T2 sequence (P14780 94-707): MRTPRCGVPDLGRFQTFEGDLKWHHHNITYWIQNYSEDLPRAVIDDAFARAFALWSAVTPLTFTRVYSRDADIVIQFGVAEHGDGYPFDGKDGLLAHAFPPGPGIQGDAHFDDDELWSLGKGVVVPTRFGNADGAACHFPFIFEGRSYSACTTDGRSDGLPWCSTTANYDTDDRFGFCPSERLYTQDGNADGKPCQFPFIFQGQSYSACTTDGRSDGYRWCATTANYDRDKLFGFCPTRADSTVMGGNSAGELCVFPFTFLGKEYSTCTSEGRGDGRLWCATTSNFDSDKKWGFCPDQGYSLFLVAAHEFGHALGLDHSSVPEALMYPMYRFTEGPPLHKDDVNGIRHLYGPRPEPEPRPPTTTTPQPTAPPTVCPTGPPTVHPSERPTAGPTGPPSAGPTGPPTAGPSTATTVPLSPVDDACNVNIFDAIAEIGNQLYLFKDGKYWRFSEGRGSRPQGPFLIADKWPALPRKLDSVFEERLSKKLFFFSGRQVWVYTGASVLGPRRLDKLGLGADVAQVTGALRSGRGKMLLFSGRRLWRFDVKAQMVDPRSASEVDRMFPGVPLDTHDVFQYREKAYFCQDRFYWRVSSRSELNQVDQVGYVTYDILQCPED
Sequence of enzyme purified from the venom of Crotalus Adamanteus (hemorrhagin) (P34179 whole entry, looked up): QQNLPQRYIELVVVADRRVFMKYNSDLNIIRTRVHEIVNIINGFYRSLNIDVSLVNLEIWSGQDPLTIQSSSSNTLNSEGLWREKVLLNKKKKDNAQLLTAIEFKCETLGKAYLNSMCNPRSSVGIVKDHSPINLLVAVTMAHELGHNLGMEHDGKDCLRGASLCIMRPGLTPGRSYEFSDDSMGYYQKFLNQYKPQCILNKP
Sequence of neutrophil collagenase (recombinant human) (P22894 101-467): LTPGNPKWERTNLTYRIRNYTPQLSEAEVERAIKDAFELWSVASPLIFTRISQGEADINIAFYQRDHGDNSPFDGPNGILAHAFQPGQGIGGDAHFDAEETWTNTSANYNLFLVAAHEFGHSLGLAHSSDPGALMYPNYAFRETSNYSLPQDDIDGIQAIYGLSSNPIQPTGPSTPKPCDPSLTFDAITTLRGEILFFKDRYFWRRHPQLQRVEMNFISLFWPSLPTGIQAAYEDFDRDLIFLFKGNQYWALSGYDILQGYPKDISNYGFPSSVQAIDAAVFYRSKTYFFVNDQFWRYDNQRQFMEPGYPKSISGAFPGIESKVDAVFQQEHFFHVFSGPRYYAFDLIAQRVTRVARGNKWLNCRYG

On to `CC(C)C[C@H](NC(=O)c1cccs1)C(=O)N[C@@H](Cc1c[nH]c2ccccc12)C(=O)O` [Tiof--Leu--Trp], for which the “% Inhibition” value in data set [1] (Concentration 8.0 × 10^-6 M) is 60%.
For the compound `COc1ccc2[nH]c(C(=O)N[C@@H](Cc3ccccc3)C(=O)N3Cc4[nH]c5ccccc5c4C[C@H]3C(=O)O)cc2c1` [Compound 8, 5-MIC--(L)--Phe--(S)--Cyt--OH], in data set [2] (read-out: IC50), the IC50 was 100 nM.
Take `Cc1cnc(C(=O)N[C@@H](CC(C)C)C(=O)N2Cc3[nH]c4ccccc4c3C[C@H]2C(=O)O)cn1` [Compound 21, 5-MPZ--(L)--Leu--(S)--Cyt--OH]: the IC50 in data set [2] (read-out: IC50) is 44 nM. Also, the “% Inhibition” value in data set [3] (Concentration 5.5 × 10^-6 M) is listed as 43%.
As to `CC(C)C[C@H](NC(=O)c1ccc2ccccc2n1)C(=O)N1Cc2[nH]c3ccccc3c2C[C@H]1C(=O)O` [Compound 16, 2-QIC--(L)--Leu--(S)--Cyt--OH], the IC50 in data set [2] (read-out: IC50) is 28 nM. Further, the “% Inhibition” value in data set [1] (Concentration 8.0 × 10^-7 M) was found to be 23%; in data set [3] (Concentration 1.0 × 10^-5 M) it was 51%.
Take MePro--Ala--Cyt: in data set [1] (Concentration 9.0 × 10^-6 M), the “% Inhibition” value amounted to 39%.
On to `COc1cccc2cc(C(=O)N[C@@H](CC(C)C)C(=O)N3Cc4[nH]c5ccccc5c4C[C@H]3C(=O)O)oc12` [Compound 5, 7-MBF--(L)--Leu--(S)--Cyt--OH], for which the IC50 in data set [2] (read-out: IC50) was determined as 94 nM.
For the compound `COc1ccc2c(c1)C(CC(=O)NC(CC(C)C)C(=O)N1Cc3[nH]c4ccccc4c3CC1C(=O)O)CC2=O` (mixture of isomers) [Compound 23, 5-MIA--(L)--Leu--(S)--Cyt--OH], in data set [2] (read-out: IC50), the IC50 was determined as 75 nM. The “% Inhibition” value in data set [1] (Concentration 8.0 × 10^-7 M) is on record as 40%.
With `O=C(NCCCC[C@H](NC(=O)c1ccco1)C(=O)N1Cc2[nH]c3ccccc3c2C[C@H]1C(=O)O)OCC1c2ccccc2-c2ccccc21` [Compound 36, 2-FUR--(L)--Lys(Fmoc)--(S)--Cyt--OH], the IC50 in data set [2] (read-out: IC50) was 100 nM.
The same measure, in the same setting: then `NC(=O)C[C@H](NC(=O)c1ccco1)C(=O)N1Cc2[nH]c3ccccc3c2C[C@H]1C(=O)O` [Compound 35, 2-FUR--(L)--Asn--(S)--Cyt--OH], with 8000 nM.
For the compound “2-FUR--(L)--Phe--(S)--Cyt--OH [Compound 11]”, the IC50 in data set [2] (read-out: IC50) is 53 nM. The “% Inhibition” value in data set [1] (Concentration 8.7 × 10^-7 M) stood at 40%; in data set [4] (Concentration 2.2 × 10^-5 M), 27%. For the same compound, the “Residue after 60 Minutes” value in data set [5] was 100%. Moreover, the “Residue after 120 Minutes” value in data set [5] is more than 95%.
On to `O=C(N[C@@H](Cc1c[nH]c2ccccc12)C(=O)N1Cc2[nH]c3ccccc3c2C[C@H]1C(=O)O)c1ccco1` [Compound 34, 2-FUR--(L)--Trp--(S)--Cyt--OH], for which the IC50 in data set [2] (read-out: IC50) came out at 400 nM.
Same read-out and setting: for `CCOc1ccccc1C(=O)N[C@@H](CC(C)C)C(=O)N1Cc2[nH]c3ccccc3c2C[C@H]1C(=O)O` [Compound 20, 2-EBZ--(L)--Leu--(S)--Cyt--OH] the value was 130 nM; for `CC(C)C[C@H](NC(=O)c1cc2cc(O)ccc2[nH]1)C(=O)N1Cc2[nH]c3ccccc3c2C[C@H]1C(=O)O` [Compound 7, 5-HIC--(L)--Leu--(S)--Cyt--OH], 23 nM; for `COc1ccccc1CC(=O)N[C@@H](CC(C)C)C(=O)N1Cc2[nH]c3ccccc3c2C[C@H]1C(=O)O` [Compound 19, 2-MPA--(L)--Leu--(S)--Cyt--OH], 260 nM.
In the case of `COc1ccc2[nH]c(C(=O)N[C@@H](Cc3c[nH]c4ccccc34)C(=O)N3Cc4[nH]c5ccccc5c4C[C@H]3C(=O)O)cc2c1` [Compound 14, 5-MIC--(L)--Trp--(S)--Cyt--OH], the IC50 in data set [2] (read-out: IC50) was 47 nM. In data set [1] (Concentration 6.0 × 10^-7 M), the “% Inhibition” value was found to be 37%.
In turn, `COc1ccc2[nH]c(C(=O)N[C@@H](CC3CCCCC3)C(=O)N3Cc4[nH]c5ccccc5c4C[C@H]3C(=O)O)cc2c1` [Compound 1, 5--MIC--Cha--(S)--Cyt--OH] had an IC50 in data set [2] of 29 nM. Also, the inhibition at 0.7 µM in data set [1] (Concentration 7.0 × 10^-7 M) turned out to be 25%.
Take “BZS--(L)--Phe--(S)--Cyt--OH [Compound 32]”: the IC50 in data set [2] (read-out: IC50) was found to be 2000 nM. Moreover, the “% Inhibition” value in data set [3] (Concentration 1.0 × 10^-5 M) is reported as 42%.
Turning to `CC(C)C[C@H](NC(=O)c1cccnc1)C(=O)N1Cc2[nH]c3ccccc3c2C[C@H]1C(=O)O` [Compound 28, 3-NIC--(L)--Leu--(S)--Cyt--OH], the IC50 in data set [2] (read-out: IC50) came out at 100 nM.
As to `CC(C)C[C@H](NC(=O)CSc1ncccn1)C(=O)N1Cc2[nH]c3ccccc3c2C[C@H]1C(=O)O` [Compound 2, 2-PMTA--(L)--Leu--(S)--Cyt--OH], the half-maximal inhibitory concentration (IC50) in data set [2] (read-out: IC50) is 230 nM.
Consider `CC(C)C[C@H](NC(=O)c1cccc2ccccc12)C(=O)N1Cc2[nH]c3ccccc3c2C[C@H]1C(=O)O` [Compound 37, 1-NAF--(L)--Leu--(S)--Cyt--OH], for which the IC50 in data set [2] (read-out: IC50) is 210 nM.
`CC(C)C[C@H](NC(=O)c1ccc[nH]1)C(=O)N[C@@H](Cc1c[nH]c2ccccc12)C(=O)O` [Pirr--Leu--Trp]: the “% Inhibition” value in data set [1] (Concentration 9.0 × 10^-6 M) was found to be 33%; in data set [4] (Concentration 1.1 × 10^-5 M) it was 15%.
`CC(C)C[C@H](NC(=O)c1ccoc1)C(=O)N1Cc2[nH]c3ccccc3c2C[C@H]1C(=O)O` [Compound 13, 3-Furoyl--(L)--Leu--(S)--Cyt--OH]: the IC50 in data set [2] (read-out: IC50) is 400 nM. Moreover, the “% Inhibition” value in data set [1] (Concentration 9.4 × 10^-7 M) was found to be 41%.
In the case of `CC(C)C[C@H](NC(=O)[C@@H](N)CCO)C(=O)N1Cc2[nH]c3ccccc3c2C[C@H]1C(=O)O` [Compound 12, (L)--HomoSer--(L)--Leu--(S)--Cyt--OH], the IC50 in data set [2] (read-out: IC50) amounted to 5000 nM.
As to `COc1ccc(C(=O)N[C@@H](CC(C)C)C(=O)N2Cc3[nH]c4ccccc4c3C[C@H]2C(=O)O)cc1OC` [Compound 30, 3,4-DMB--(L)--Leu--(S)--Cyt--OH], in data set [2] (read-out: IC50), the IC50 was 380 nM. Moreover, in data set [5], the “Residue after 60 Minutes” value stood at 100% and the “Residue after 120 Minutes” value was more than 95%.
Compound `COc1ccc2[nH]c(C(=O)N[C@@H](CC(C)C)C(=O)N3Cc4[nH]c5ccccc5c4C[C@H]3C(=O)O)cc2c1` [Compound 17, 5-MIC--(L)--Leu--(S)--Cyt--OH] showed an IC50 in data set [2] of 23 nM.
`CC(C)C[C@H](NC(=O)c1ccncc1)C(=O)N1Cc2[nH]c3ccccc3c2C[C@H]1C(=O)O` [Compound 29, 4-NIC--(L)--Leu--(S)--Cyt--OH]: the IC50 in data set [2] (read-out: IC50) amounted to 400 nM.
With `CC(C)C[C@H](NC(=O)c1ccc(Cl)cc1)C(=O)N1Cc2[nH]c3ccccc3c2C[C@H]1C(=O)O` [Compound 27, 4-CBZ--(L)--Leu--(S)--Cyt--OH], the IC50 in data set [2] (read-out: IC50) stood at 100 nM. For the same compound, in data set [4] (Concentration 2.1 × 10^-5 M), the “% Inhibition” value is 28%.
Regarding `COc1cc(C(=O)N[C@@H](CC(C)C)C(=O)N2Cc3[nH]c4ccccc4c3C[C@H]2C(=O)O)nc2ccccc12` [Compound 6, 4-MQC--(L)--Leu--(S)--Cyt--OH], in data set [2] (read-out: IC50), the IC50 came to 50 nM.
On to `CC(C)C[C@H](NC(=O)c1ccc([N+](=O)[O-])cc1)C(=O)N1Cc2[nH]c3ccccc3c2C[C@H]1C(=O)O` [Compound 26, 4-NBZ--(L)--Leu--(S)--Cyt--OH], for which the IC50 in data set [2] (read-out: IC50) worked out at 95 nM. Further, in data set [5], the “Residue after 60 Minutes” value was 100% and the “Residue after 120 Minutes” value is on record as more than 95%.
In the case of `CC(C)C[C@H](NC(=O)c1nccnc1N)C(=O)N1Cc2[nH]c3ccccc3c2C[C@H]1C(=O)O` [Compound 4, 3-APZC--(L)--Leu--(S)--Cyt--OH], in data set [2] (read-out: IC50), the IC50 was 57 nM.
For the compound `CC(C)C[C@H](NC(=O)[C@@H]1CCCCN1C(=O)OCc1ccccc1)C(=O)N[C@@H](Cc1c[nH]c2ccccc12)C(=O)O` [Z--Pip--Leu--Trp] (Cbz-[Pip]-Leu-Trp-OH), the “% Inhibition” value in data set [1] (Concentration 9.0 × 10^-6 M) is reported as 63%.
